The results in this text go back to patent publication US8563717B2, “Adenine derivatives” (GlaxoSmithKline LLC, priority 2008, dated 2013).

Counter-ions that a name gives are not always drawn.

The experiment concerns Interferon-α. Kind of experiment: Induction of Interferon-α using cryopreserved human PBMCs. The experiment is classed as cell-based. To be noted: PBMC, 24 h incubation, normalised to 1 uM resiquimod, read-out: mean pEC50 for induction of IFN-α (converted). The method, then: Assay for the Induction of Interferon-α Using Cryopreserved Human Peripheral Blood Mononuclear Cells (PBMCs)
Compounds were dissolved in DMSO. Serial 2-fold dilutions with DMSO were prepared and 0.25 μl dispensed into 384-well clear Greiner polypropylene plates.
Blood samples of up to 200 ml were obtained from healthy human donors. Whole blood in 25 ml volumes was overlaid onto 15 ml Ficoll gradients in Leucosep tubes, and centrifuged at 1000 g for 20 min. Cells in the band at the plasma/histopaque interface were carefully removed and washed twice with PBS (centrifuged at 400 g for 5 min to harvest). The final pellet was resuspended in freezing medium (90% Heat-inactivated serum, 10% DMSO) to a cell concentration of 4×10^7 cells/ml. The resuspended cells were then cryopreserved (frozen) using a rate controlled freezer, and stored at −140° C. for up to 4 months.
Immediately prior to assay, vials of cryopreserved (frozen) PBMCs were thawed rapidly in a water bath at 37° C. A 1:10 dilution of the cells in trypan blue was prepared and counted. The PBMCs were then diluted in growth media [RPMI 1640 containing 10% fetal calf serum (invitrogen), Penicillin+[…] (Gibco cat. #25030-024, 1:50), L-Glutamine 2 mM, and 1000 units/ml recombinant human IFN-gamma (Preprotech catalogue #300-02)] to a density of 1×10^6 cells/ml, and 50 ul/well dispensed to 384-well clear Greiner polypropylene plates containing 0.25 μl DMSO or test compound in 0.25 μl DMSO. […] Plates were incubated for 24 h at 37° C. in 5% CO2.
A multi-isoform immunoassay was used to quantify IFN-α in PBMC supernatants. Rabbit polyclonal antibody against human IFN-α (catalogue number 31101, Stratech Scientific) was diluted 1:10000 in assay buffer (RPMI 1640 containing 10% fetal calf serum, Invitrogen) and 20 μl was added to each well of an MSD (Meso-Scale Discovery) single small-spot 384-well GAR (goat anti-rabbit antibody coated) plate. The plate was incubated for 1 hour at room temperature with vigorous shaking. Following three washes with PBS, 20 μl of cell supernatant were added to each well of the plate. The plate was then incubated for 1 hour at room temperature with vigorous shaking. A pair of monoclonal antibodies to IFN-α (catalogue numbers 21100 and 21112, Stratech Scientific) were labelled with sulfo-TAG (MSD), diluted 1:1000 in assay buffer and 20 μl added to each well of the plate. The plate was further incubated for 1 hour at room temperature with vigorous shaking. Following three washes with PBS, 30 μl of x2 T buffer (MSD) was added to each well and the plate was read on an MSD Sector 6000 plate reader.
Data were normalised to internal plate controls of 1 uM resiquimod (n=16) and DMSO (n=16). pEC50 values were derived by 4-parameter curve fit with IRLS in ActivityBase, from 11-point, two-fold serial dilution of test compounds.
As for `CCCCOc1nc(N)c2[nH]c(=O)n(CCCC3CCCN(CCC(C)C)C3)c2n1` (stereo not drawn) [Example 49, 6-Amino-2-(butyloxy)-9-{3-[1-(3-methylbutyl)-3-piperidinyl]propyl}-7,9-dihydro-8H-purin-8-one], the EC50 was < 1.58 µM.

For the compound `CCCCOc1nc(N)c2[nH]c(=O)n(CCCC3CCCN(C4CCCC4)C3)c2n1` (stereo not drawn) [Example 50, 6-Amino-2-(butyloxy)-9-[3-(1-cyclopentyl-3-piperidinyl)propyl]-7,9-dihydro-8H-purin-8-one], the EC50 was < 1.58 µM.

As to `CCCCOc1nc(N)c2[nH]c(=O)n(CCCC3CCCN(CC4CCCC4)C3)c2n1` (stereo not drawn) [Example 51, 6-Amino-2-(butyloxy)-9-{3-[1-(cyclopentylmethyl)-3-piperidinyl]propyl}-7,9-dihydro-8H-purin-8-one hydrochloride], the EC50 was < 1.58 µM.

On to `CCCCOc1nc(N)c2[nH]c(=O)n(CCCC3CCCN(CCC4CCCCC4)C3)c2n1` (stereo not drawn) [Example 52, 6-Amino-2-(butyloxy)-9-{3-[1-(2-cyclohexylethyl)-3-piperidinyl]propyl}-7,9-dihydro-8H-purin-8-one], for which the EC50 was < 1.58 µM.

For the compound `CCC[C@H](C)Oc1nc(N)c2[nH]c(=O)n(CCCC3CCCNC3)c2n1` (stereo partly drawn) [Example 53, 6-Amino-2-{[(1S)-1-methylbutyl]oxy}-9-[3-(3-piperidinyl)propyl]-7,9-dihydro-8H-purin-8-one], the EC50 is < 1.58 µM.

On to `CCC[C@H](C)Oc1nc(N)c2[nH]c(=O)n(CCCC3CCCN(CC)C3)c2n1` (stereo partly drawn) [Example 54, 6-Amino-9-[3-(1-ethyl-3-piperidinyl)propyl]-2-{[(1S)-1-methylbutyl]oxy}-7,9-dihydro-8H-purin-8-one], for which the EC50 is < 1.58 µM.

As to `CCCCOc1nc(N)c2[nH]c(=O)n(CCCCC3CCCNC3)c2n1` (stereo not drawn) [Example 55, 6-amino-2-(butyloxy)-9-[4-(3-piperidinyl)butyl]-7,9-dihydro-8H-purin-8-one], the EC50 was < 1.58 µM.

With `CCCCOc1nc(N)c2[nH]c(=O)n(CCCCC3CCCN(CC)C3)c2n1` (stereo not drawn) [Example 56, 6-Amino-2-(butyloxy)-9-[4-(1-ethyl-3-piperidinyl)butyl]-7,9-dihydro-8H-purin-8-one], the EC50 was < 1.58 µM.

With `CCCCOc1nc(N)c2[nH]c(=O)n(CCCCC3CCCN(CCC)C3)c2n1` (stereo not drawn) [Example 57, 6-Amino-2-(butyloxy)-9-[4-(1-propyl-3-piperidinyl)butyl]-7,9-dihydro-8H-purin-8-one], the EC50 was < 1.58 µM.

For the compound `CCCCOc1nc(N)c2[nH]c(=O)n(CCCCC3CCCN(C(C)C)C3)c2n1` (stereo not drawn) [Example 58, 6-Amino-2-(butyloxy)-9-{4-[1-(1-methylethyl)-3-piperidinyl]butyl}-7,9-dihydro-8H-purin-8-one], the EC50 was < 1.58 µM.

`CCCCOc1nc(N)c2[nH]c(=O)n(CCCCC3CCCN(CCCC)C3)c2n1` (stereo not drawn) [Example 59, 6-Amino-2-(butyloxy)-9-[4-(1-butyl-3-piperidinyl)butyl]-7,9-dihydro-8H-purin-8-one]: the EC50 was < 1.58 µM.

Regarding `CCCCOc1nc(N)c2[nH]c(=O)n(CCCCC3CCCN(CC(C)C)C3)c2n1` (stereo not drawn) [Example 60, 6-Amino-2-(butyloxy)-9-{4-[1-(2-methylpropyl)-3-piperidinyl]butyl}-7,9-dihydro-8H-purin-8-one hydrochloride], the EC50 is < 1.58 µM.

On to `CCCCOc1nc(N)c2[nH]c(=O)n(CCCCC3CCCN(CCC(C)C)C3)c2n1` (stereo not drawn) [Example 61, 6-Amino-2-(butyloxy)-9-{4-[1-(3-methylbutyl)-3-piperidinyl]butyl}-7,9-dihydro-8H-purin-8-one], for which the EC50 is < 1.58 µM.

Regarding `CCCCOc1nc(N)c2[nH]c(=O)n(CCCCC3CCCN(C4CCCC4)C3)c2n1` (stereo not drawn) [Example 62, 6-Amino-2-(butyloxy)-9-[4-(1-cyclopentyl-3-piperidinyl)butyl]-7,9-dihydro-8H-purin-8-one], the EC50 is < 1.58 µM.

Take `CCCCOc1nc(N)c2[nH]c(=O)n(CCCCC3CCCN(CC4CCCC4)C3)c2n1` (stereo not drawn) [Example 63, 6-Amino-2-(butyloxy)-9-{4-[1-(cyclopentylmethyl)-3-piperidinyl]butyl}-7,9-dihydro-8H-burin-8-one hydrochloride]: the EC50 was < 1.58 µM.

Turning to `CCCCOc1nc(N)c2[nH]c(=O)n(CCCCC3CCCN(CCC4CCCCC4)C3)c2n1` (stereo not drawn) [Example 64, 6-Amino-2-(butyloxy)-9-{4-[1-(2-cyclohexylethyl)-3-piperidinyl]butyl}-7,9-dihydro-8H-burin-8-one], the EC50 was < 1.58 µM.

Regarding `CCC[C@H](C)Oc1nc(N)c2[nH]c(=O)n(CCCCC3CCCNC3)c2n1` (stereo partly drawn) [Example 65, 6-Amino-2-{[(1S)-1-methylbutyl]oxy}-9-[4-(3-piperidinyl)butyl]-7,9-dihydro-8H-purin-8-one], the EC50 was < 1.58 µM.

With `CCCCOc1nc(N)c2[nH]c(=O)n(CCCCCC3CCCNC3)c2n1` (stereo not drawn) [Example 67, 6-Amino-2-(butyloxy)-9-[5-(3-piperidinyl)pentyl]-7,9-dihydro-8H-purin-8-one], the EC50 is < 1.58 µM.

Take `CCCCOc1nc(N)c2[nH]c(=O)n(CCCCCC3CCCN(CC)C3)c2n1` (stereo not drawn) [Example 68, 6-Amino-2-(butyloxy)-9-[5-(1-ethyl-3-piperidinyl)pentyl]-7,9-dihydro-8H-purin-8-one]: the EC50 is < 1.58 µM.

In the case of `CCCCOc1nc(N)c2[nH]c(=O)n(CC3CCN(CCC)CC3)c2n1` [Example 70, 6-Amino-2-(butyloxy)-9-[(1-propyl-4-piperidinyl)methyl]-7,9-dihydro-8H-purin-8-one], the EC50 is < 1.58 µM.

In the case of `CCCCOc1nc(N)c2[nH]c(=O)n(CC3CCN(C(C)C)CC3)c2n1` [Example 71, 6-Amino-2-(butyloxy)-9-{[1-(1-methylethyl)-4-piperidinyl]methyl}-7,9-dihydro-8H-purin-8-one], the EC50 was < 1.58 µM.

For the compound `CCCCOc1nc(N)c2[nH]c(=O)n(CC3CCN(CCCC)CC3)c2n1` [Example 72, 6-Amino-2-(butyloxy)-9-[(1-butyl-4-piperidinyl)methyl]-7,9-dihydro-8H-purin-8-one], the EC50 was < 1.58 µM.

In the case of `CCCCOc1nc(N)c2[nH]c(=O)n(CC3CCN(CC(C)C)CC3)c2n1` [Example 73, 6-Amino-2-(butyloxy)-9-{[1-(2-methylpropyl)-4-piperidinyl]methyl}-7,9-dihydro-8H-purin-8-one], the EC50 is < 1.58 µM.

With `CCCCOc1nc(N)c2[nH]c(=O)n(CC3CCN(CCC(C)C)CC3)c2n1` [Example 74, 6-Amino-2-(butyloxy)-9-{[1-(3-methylbutyl)-4-piperidinyl]methyl}-7,9-dihydro-8H-purin-8-one], the EC50 was < 1.58 µM.

On to `CCCCOc1nc(N)c2[nH]c(=O)n(CC3CCN(C4CCCC4)CC3)c2n1` [Example 75, 6-Amino-2-(butyloxy)-9-[(1-cyclopentyl-4-piperidinyl)methyl]-7,9-dihydro-8H-purin-8-one], for which the EC50 was < 1.58 µM.

Turning to `CCCCOc1nc(N)c2[nH]c(=O)n(CC3CCN(C4CCCCC4)CC3)c2n1` [Example 76, 6-Amino-2-(butyloxy)-9-[(1-cyclohexyl-4-piperidinyl)methyl]-7,9-dihydro-8H-purin-8-one], the EC50 is < 1.58 µM.

Take `CCC[C@H](C)Oc1nc(N)c2[nH]c(=O)n(CC3CCNCC3)c2n1` [Example 77, 6-Amino-2-{[(1S)-1-Methylbutyl]oxy}-9-(4-piperidinylmethyl)-7,9-dihydro-8H-purin-8-one]: the EC50 was < 1.58 µM.

For the compound `CCC[C@H](C)Oc1nc(N)c2[nH]c(=O)n(CC3CCN(CC)CC3)c2n1` [Example 78, 6-Amino-9-[(1-ethyl-4-piperidinyl)methyl]-2-{[(1S)-1-methylbutyl]oxy}-7,9-dihydro-8H-purin-8-one], the EC50 was < 1.58 µM.

Regarding `CCC[C@H](C)Oc1nc(N)c2[nH]c(=O)n(CC3CCN(C(C)C)CC3)c2n1` [Example 79, 6-Amino-2-{[(1S)-1-methylbutyl]oxy}-9-{[1-(1-methylethyl)-4-piperidinyl]methyl}-7,9-dihydro-8H-purin-8-one], the EC50 was < 1.58 µM.

Take `CCCCOc1nc(N)c2[nH]c(=O)n(CCC3CCN(CCC)CC3)c2n1` [Example 80, 6-Amino-2-(butyloxy)-9-[2-(1-propyl-4-piperidinyl)ethyl]-7,9-dihydro-8H-purin-8-one]: the EC50 is < 1.58 µM.
